From patent US20210244686A1, “Novel Systems And Methods For The Therapeutic Use of Cannabinoids or Cannabinoid Analogs to Increase The Lipid Order of Cholesterol Containing Cell Membranes” (The Regents of the University of Colorado a body corporate, priority 2018, published 2021)

Tests used:
Format in all cases: cell-based, human
[1] = test system: SKNBE2 neuroblastoma cells; experiment: Flow cytometric analysis of rhodamine-glibenclamide staining in live cells
SK-N-BE(2) cells [2] = experiment: Fluorometric total cellular cholesterol (Amplex Red Cholesterol Assay Kit); details: orthogonal experiment
From the text: FIG. 11A-C. (A) Plots of 13C labelled (left) and total+labeled cholesterol (right) abundances measured in methanol extracts from vehicle/CBD treated cells. (B) A similar analysis for cholesterol precursors. (C) Fluorometric measurement of total cellular cholesterol from methanol extracts of SK-N-BE(2) cells using the Amplex Red Cholesterol Assay Kit.
These findings raise the question of whether CBD treatment leads to alterations in lipid and cholesterol metabolism (the latter pathway depicted in FIG. 3A). The present inventors used mass spectrometry-based lipidomics, a subset of metabolomics, to quantify the effect of CBD on the fluxes of key lipids and sterols. Vehicle and CBD exposed cells were fed ^13C labeled glucose for 24 hours and harvested using methanol extraction and mass spectrometry analysis. Cholesterol biosynthesis was analyzed by determining the level of incorporation of ^13C into biosynthetic intermediates. […] The effect of CBD on total cellular cholesterol was confirmed using a fluorogenic assay for cholesterol in an orthogonal experiment (FIG. 11B).

SREBP2 = experiment: Western blot analysis of SREBP2 proteolytic processing; details: 24 hr
From the text: To further investigate the role of SREBP/SCAP signaling in the CBD response, the present inventors used western blot analysis to probe whether SREBP2 proteolytic processing is affected by CBD. […] The present inventors performed this assay with cells grown in LDL containing FBS (elevated cholesterol) and LDL depleted FBS (cholesterol starved). […] However, the inventors also detect evidence that although cholesterol precursors are accumulating in a CBD dependent manner, cholesterol itself appears to experience a net decrease in de novo synthesis. This is evident in the overall decrease in newly synthesized ^13C labeled cholesterol in CBD treated cells (FIG. 3B) and implies an apparent blockage in the final step of cholesterol biosynthesis, which is catalyzed by either DHCR24 or DHCR7 in the ER.
Cells were harvested at 24 hours by trypsinization and counted using a hemocytometer to determine cell concentration. 4×10^6 cells from each sample were lysed using 200 μL SDS lysis buffer (20 mM Tris pH 6.8, 4% SDS, 0.5% beta mercaptoethanol) and lysates were boiled for 5 minutes 95° C. and subsequently sonicated at 40% power 10 cycles 10 seconds on/off. 10 μL of lysate was loaded into each lane of a 12% SDS PAGE gel. Immunoblotting of protein transferred to nitrocellulose membrane was performed using anti-SREBP2 (Cayman Chemical #10007663).

SK-N-BE(2) cells [3] = experiment: RNAseq transcriptomics of CBD response; details: 20 μM CBD
Procedure: In order to compare and contrast proteomic derived mechanistic components of the CBD response to that of transcriptomic components, the present inventors additionally performed RNAseq analysis of SK-N-BE(2) cells exposed to vehicle or 20 μM CBD at the time-points indicated in FIG. 1C. 5,643 differentially expressed genes were identified in the CBD response gene with a FDR<1%, which was further reduced to a list of 139 genes with an LFC>=1. […] While most of these annotations are supported by either the transcriptome or the proteome, dysregulation of cholesterol metabolism is supported by both. […] As a result of the agreement between proteomic and transcriptomic data, we focused our study thereafter on determining the role of cholesterol homeostasis in the CBD drug response.
Sequencing was performed on seven consecutive lanes. Median read counts per lane were ˜49,000 with a CV of ˜7%. Starting with 228 fastq files, each lane set was concatenated per condition. Using Trimmomtic-0.36, base pairs were trimmed if they dropped below a PHRED score of 15 within a sliding window of 4 bp. Remaining reads shorter than 35 base pairs were removed. Illumina adapter sequences were also clipped using Trimmomatic. […] Read alignment was accomplished using Tophat-2.0.13 and Cufflinks/Cuffdiff 2.2.1 was used for FPKM quantitation and differential expression analysis per time point.

For `C=C(C)[C@@H]1CCC(C)=C[C@H]1c1c(O)cc(CCCCC)cc1O` [CBD, cannabidiol], the “cellular response similar to cholesterol drugs Atorvastatin and Ezetimibe” value ([1]; SKNBE2 neuroblastoma cells) was “low cholesterol response”, the rhodamine-glibenclamide fluorescence ([1]; live cells, flow cytometry) was “Enhanced fluorescence” and the “effect on total cellular cholesterol, fluorogenic assay” value (SK-N-BE(2) cells [2]) was “confirmed”. For the same compound, the “magnitude of SREBP2 cleavage activation versus U18666A or Atorvastatin” value (SREBP2; U18666A 10 μM, Atorvastatin 10 μM) was “lower in magnitude”, the SREBP2 cleavage (SREBP2; both cholesterol starved and elevated cholesterol conditions) was “dose dependent activation” and the HMG-CR expression (SK-N-BE(2) cells [3]) was “transcriptional activation”.
